Measurements as given in patent US20250109504A1, “HETEROCYCLIC NON-TRIAZOLE COMPOUNDS AND METHODS FOR INHIBITING CORROSION IN INDUSTRIAL WATER TREATMENT” (CHEMTREAT, INC., priority 2023, published 2025).

Assays:
[1] = Solubility in sodium hydroxide (NaOH); assay type: physicochemical; settings: solubilized in sodium hydroxide (NaOH)
Description: Moreover, conventional treatment methods involve solubilizing corrosion inhibitors in sodium hydroxide (NaOH). Solubility of benzimidazoles and polymeric acids such as 4,5-imidazoledicarboxylic acid in NaOH is low, i.e., less than 2%. […] These and other issues are addressed by the present disclosure.

[2] = LPR corrosion test of copper coupons in synthetic water with free chlorine (Gamry corrosion cell); settings: for deterioration in corrosion resistance when free chlorine is added: FAC 1 ppm after 1 hr
Experimental: Several classes of compounds at various concentrations were tested to determine their potential to inhibit corrosion of copper alloy in aqueous systems as shown in Table 1 below.
1 liter samples of synthetic water were each dosed with 5 ppm of a different glucamide compound (A, B, C, D) according to Formula (I) above and 50 ppm of a standard scale inhibitor. Another 1 liter sample of synthetic water was dosed with 4 ppm of tolyltriazole and 50 ppm of the standard scale inhibitor product.
The apparatus used for the corrosion testing was a Gamry Multiport Corrosion Cell and Gamry Reference 600+ potentiostat with multiplexor. Copper coupons (CDA110) were added to the sample cells, and the cells were heated to 50° C. and maintained at this temperature throughout the testing. The cells were continuously stirred at a speed of 350 rpm. A cylindrical working electrode was submerged into the test solutions, and an LPR sweep (linear polarization resistance) was performed every hour for 18 hours. After the one hour mark, 1 ppm of free chlorine was dosed into the corrosion cell.

Compound | Solubility in NaOH [1] | corrosion inhibition properties (corrosion rates, FIG. 1) as compared to the triazole inhibitors ([2]; Example 1, IMDCC 5, 2.5, 1 ppm vs HST 0.5/0.25/0.1 ppm and TTA 0.5 ppm, CDA110, 50° C., entire 18 hour period) | deterioration in corrosion resistance when free chlorine is added ([2]; Example 1, IMDCC 5, 2.5, 1 ppm, CDA110, 50° C.) | corrosion inhibition properties (corrosion rates, FIG. 2) as compared to the triazole inhibitors ([2]; Example 2, IMDCC 1 ppm, CT1 + IMDCC 100 ppm + 1 ppm vs HST 0.5 ppm, CDA110, 50° C., entire 18 hour period) | deterioration in corrosion resistance when free chlorine is added ([2]; Example 2, IMDCC 1 ppm, CT1 + IMDCC 100 ppm + 1 ppm, unlike the CT1 inhibitor) | corrosion inhibition properties (corrosion rates, FIG. 3) as compared to the triazole inhibitors ([2]; Example 3, IMDCC 2.0, 1 ppm, HST + IMDCC 0.10+0.90 to 0.90+0.10 ppm vs HST 1/0.5/0.25 ppm, CDA110, 50° C., entire 18 hour period) | deterioration in corrosion resistance when free chlorine is added ([2]; Example 3, IMDCC 2.0, 1 ppm, HST + IMDCC 0.10+0.90 to 0.90+0.10 ppm) | corrosion inhibition properties (corrosion rates, FIG. 4) as compared to the triazole inhibitors ([2]; Example 4, IMDCC 2.0, 1 ppm, CT2 + IMDCC 50 ppm + 1 ppm, 25 ppm + 2 ppm, CDA110, 50° C., entire 18 hour period) | deterioration in corrosion resistance when free chlorine is added ([2]; Example 4, IMDCC 2.0, 1 ppm, CT2 + IMDCC 50 ppm + 1 ppm, 25 ppm + 2 ppm, unlike the CT2 inhibitor)
O=C(O)c1nc[nH]c1C(=O)O [4,5-imidazoledicarboxylic acid] | less than 2% |  |  |  |  |  |  |  | 
Imidazole dicarboxylate [IMDCC] |  | superior corrosion inhibition properties | do not exhibit any substantial deterioration | superior corrosion inhibition properties | do not exhibit any substantial deterioration | superior corrosion inhibition properties | do not exhibit any substantial deterioration | superior corrosion inhibition properties | do not exhibit any substantial deterioration
